Source: the supplement of paper PMC10307832

Legend:
Assay in all cases: relative viability (nuclei count vs DMSO), 5 days (fraction); higher = more cells survive
Metformin + Palbociclib = compound: CN(C)C(=N)NC(=N)N [Metformin] + CC(=O)c1c(C)c2cnc(Nc3ccc(N4CCNCC4)cn3)nc2n(C2CCCC2)c1=O [Palbociclib] (partner 0.5 µM)
Summary of the method: (§1)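 The day after seeding in 1536-well plates, lung cancer cell lines were treated by pin tool with a single drug, or with a fixed anchor-drug dose together with five library-drug doses (not always all listed) in √10 steps. After 5 days, a combined fix-and-stain solution (final 0.05% Triton X-100, 1% formaldehyde, 1 ug/ml Hoechst) was added. Nuclei counted on 4× images gave relative viability as treated counts over vehicle counts, reported as the median of duplicate plates.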

Metformin + Navitoclax = compound: CN(C)C(=N)NC(=N)N [Metformin] + CC1(C)CCC(c2ccc(Cl)cc2)=C(CN2CCN(c3ccc(C(=O)NS(=O)(=O)c4ccc(N[C@H](CCN5CCOCC5)CSc5ccccc5)c(S(=O)(=O)C(F)(F)F)c4)cc3)CC2)C1 [Navitoclax] (partner 0.5 µM)
Summary of the method: as §1

Apatinib + Crizotinib = compound: N#CC1(c2ccc(NC(=O)c3cccnc3NCc3ccncc3)cc2)CCCC1 [Apatinib] + C[C@@H](Oc1cc(-c2cnn(C3CCNCC3)c2)cnc1N)c1c(Cl)ccc(F)c1Cl [Crizotinib] (partner 1 µM)
Summary of the method: as §1

Apatinib + Linsitinib = compound: N#CC1(c2ccc(NC(=O)c3cccnc3NCc3ccncc3)cc2)CCCC1 [Apatinib] + C[C@]1(O)C[C@@H](c2nc(-c3ccc4ccc(-c5ccccc5)nc4c3)c3c(N)nccn32)C1 [Linsitinib] (partner 1 µM)
Summary of the method: as §1

Row | Cell Line | relative viability (Metformin + Palbociclib; first compound 10 µM) | relative viability (Metformin + Palbociclib; first compound 31.62 µM) | relative viability (Metformin + Palbociclib; first compound 100 µM) | relative viability (Metformin + Palbociclib; first compound 1000 µM) | relative viability (Metformin + Navitoclax; first compound 10 µM) | relative viability (Metformin + Navitoclax; first compound 31.62 µM) | relative viability (Metformin + Navitoclax; first compound 100 µM) | relative viability (Metformin + Navitoclax; first compound 316.23 µM) | relative viability (Metformin + Navitoclax; first compound 1000 µM) | relative viability (Apatinib + Crizotinib; first compound 0.08 µM) | relative viability (Apatinib + Crizotinib; first compound 0.253 µM) | relative viability (Apatinib + Crizotinib; first compound 0.8 µM) | relative viability (Apatinib + Crizotinib; first compound 2.53 µM) | relative viability (Apatinib + Crizotinib; first compound 8 µM) | relative viability (Apatinib + Linsitinib; first compound 0.08 µM) | relative viability (Apatinib + Linsitinib; first compound 0.253 µM) | relative viability (Apatinib + Linsitinib; first compound 0.8 µM) | relative viability (Apatinib + Linsitinib; first compound 2.53 µM) | relative viability (Apatinib + Linsitinib; first compound 8 µM) | relative viability (Metformin + Palbociclib; first compound 316.23 µM)
1 | NCI-H727 | 0.672 | 0.78 | 0.818 | 0.618 | 0.503 | 0.514 | 0.496 | 0.512 | 0.535 | 0.756 | 0.693 | 0.719 | 0.679 | 0.583 | 0.33 | 0.33 | 0.415 | 0.348 | 0.36 | 
2 | NCI-H2009 | 0.194 | 0.321 | 0.228 | 0.202 | 1.19 | 1.16 | 1.21 | 1.17 | 1.07 | 1.05 | 1.1 | 1.02 | 0.814 | 0.698 | 1.26 | 1.16 | 1.17 | 1.08 | 0.799 | 0.122
3 | NCI-H1666 | 0.695 | 0.616 | 0.642 | 0.714 | 1.17 | 1.05 | 0.956 | 0.899 | 1.07 | 1.15 | 1.28 | 0.985 | 1.14 | 0.718 | 0.861 | 0.99 | 0.92 | 0.917 | 0.724 | 0.681
4 | UMC-11 | 0.336 | 0.349 | 0.333 | 0.341 | 0.328 | 0.347 | 0.346 | 0.363 | 0.384 | 0.619 | 0.57 | 0.617 | 0.519 | 0.493 | 0.999 | 1.01 | 0.979 | 0.911 | 0.93 | 0.311
5 | NCI-H1755 | 0.411 | 0.397 | 0.43 | 0.416 | 0.821 | 0.897 | 0.912 | 0.89 | 0.935 | 0.858 | 0.885 | 0.911 | 0.803 | 0.769 | 0.976 | 0.97 | 0.964 | 0.977 | 0.709 | 0.433
6 | 201T |  | 0.376 | 0.397 | 0.382 |  | 1.26 | 1.17 | 1.16 | 1.17 | 1.02 | 1.04 | 0.996 | 1.03 | 0.992 | 1.03 | 1.02 | 1.09 | 1.05 | 1.04 | 0.329
7 | NCI-H838 | 0.295 | 0.278 | 0.261 | 0.298 | 1.19 | 1.23 | 1.21 | 1.15 | 1.22 | 0.892 | 0.936 | 0.77 | 0.76 | 0.775 | 1.14 | 1.18 | 0.962 | 0.985 | 1.04 | 0.271
8 | HOP-62 | 0.372 | 0.405 | 0.358 | 0.374 | 0.922 | 0.845 | 1.04 | 0.989 | 0.986 | 0.989 |  | 0.868 | 0.935 | 0.654 | 1.19 |  | 0.896 | 0.821 | 0.786 | 0.387
9 | LC-2-ad |  | 0.341 | 0.313 | 0.347 |  | 0.26 | 0.167 | 0.18 | 0.311 | 0.477 | 0.496 | 0.463 | 0.473 | 0.482 | 0.863 | 0.831 | 0.864 | 0.652 | 0.507 | 0.27
